According to patent US8829014B2, “Thiazole and thiophene analogues, and their use in treating autoimmune diseases and cancers” (Board of Supervisors of Louisiana State University and …, priority 2006, dated 2014):

How the values were obtained:
NF-κB = NF-κB inhibitor screen: basal NF-κB-dependent luciferase expression in HEK/NF-κB cell line; format: cell-based; conditions: 1 uM; determined as described in Example 398; read-out: NFkB inhibition @ 1 uM
Outline: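 HEK293 cells stably carrying a luciferase reporter under six NF-κB elements were treated with compound, unstimulated, 24 h after plating. Compounds were first tested at 1.0 μM (0.3% DMSO), later at six doses from 10 to 3300 nM, in triplicate. Brite-Glo luciferase signal was normalized to DMSO, or to the lowest dose for dose-response runs.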

AP-1 = AP-1 inhibitor screen: basal AP-1-dependent luciferase expression in HEK/AP-1 cell line; format: cell-based; conditions: AP1; 1 uM; determined as described in Example 398
Outline: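 HEK293 cells stably carrying a luciferase reporter driven by three AP-1 elements were plated 24 hr, then given compound at 1.0 μM in 0.3% DMSO for 48 hr, in triplicate. Basal expression without stimulus was read as luminescence (Brite-Glo), normalized to DMSO; dose-response runs repeated two to four times.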

Compound	inhibition at 1 µM (NF-κB) [%]	melting point [°C]	inhibition at 1 µM (AP-1) [%]
CC(=O)c1ccc(-n2c(-c3sc(NC(=O)c4ccccc4)nc3-c3ccccc3)nc3ccccc3c2=O)cc1 [Example 268, N-[5-(4-Oxo-3-(4-acetyl-phenyl)-3,4-dihydro-quinazolin-2-yl)-4-phenyl-thiazole-2-yl]benzamide]	18	250 to 252	44
Cc1cccc(-n2c(-c3sc(Nc4ccc(Cl)cc4)nc3C)nc3ccccc3c2=O)c1 [Example 183, 2-[2-(4-Chlorophenylamino)-4-methyl-thiazol-5-yl]-3-m-tolyl-3H-quinazolin-4-one]	2	236 to 238	39
COc1cccc(-n2c(-c3sc(NC(=O)c4ccccc4)nc3-c3ccccc3)nc3ccccc3c2=O)c1 [Example 214, N-[5-(4-Oxo-3-(3-methoxyphenyl)-3,4-dihydro-quinazolin-2-yl)-4-phenyl-thiazole-2-yl]benzamide]	34	195 to 196	30
COC(=O)Nc1nc(-c2ccccc2)c(-c2nc3ccccc3c(=O)n2-c2ccccc2C)s1 [Example 172, [5-(4-Oxo-3-o-tolyl-3,4-dihydro-quinazolin-2-yl)-4-phenyl-thiazol-2-yl]-carbamic acid methyl ester]	0	> 275	25
CNc1nc(-c2ccccc2)c(-c2nc3ccccc3c(=O)n2-c2cccc(C)c2)s1 [Example 186, 2-(2-methylamino-4-phenyl-thiazol-5-yl)-3-m-tolyl-3H-quinazolin-4-one]	23	186 to 187	10
Cc1cccc(-n2c(-c3sc(NC(=O)c4ccccc4)nc3-c3ccccc3)nc3ccccc3c2=O)c1 [Example 188, N-[5-(4-Oxo-3-m-tolyl-3,4-dihydro-quinazolin-2-yl)-4-phenyl-thiazole-2-yl]benzamide]	42	> 275	63
CC(=O)c1ccc(-n2c(-c3sc(Nc4ccccc4)nc3-c3ccccc3)nc3ccccc3c2=O)cc1 [Example 267, 3-(4-acetyl-phenyl)-2-(4-phenyl-2-phenylamino-thiazol-5-yl)-3H-quinazolin-4-one]	43	223 to 225	19
Cc1nc(Nc2ccccc2)sc1-c1nc2ccccc2c(=O)n1-c1ccccc1Cl [Example 229, 2-(4-Methyl-2-phenylamino-thiazol-5-yl)-3-(2-chloro-phenyl)-3H-quinazolin-4-one]	6	228 to 229	21
CC(=O)c1ccc(-n2c(-c3sc(NC(=O)c4ccc(C)cc4)nc3-c3ccccc3)nc3ccccc3c2=O)cc1 [Example 269, 4-Methyl-N-[5-(4-oxo-3-(4-acetyl-phenyl)-3,4-dihydroquinazolin-2-yl)-4-phenyl-thiazol-2-yl]-benzamide]	27	266 to 267	1
CNc1nc(-c2ccccc2)c(-c2nc3ccccc3c(=O)n2-c2ccc(C(C)=O)cc2)s1 [Example 266, 2-(2-Methylamino-4-phenyl-thiazol-5-yl)-3-(4-acetyl-phenyl)-3H-quinazolin-4-one]	4	239 to 240	15
Cc1ccc(C(=O)Nc2nc(-c3ccccc3)c(-c3nc4ccccc4c(=O)n3-c3ccccc3C)s2)cc1 [Example 176, 4-Methyl-N-[5-(4-oxo-3-o-tolyl-3,4-dihydroquinazolin-2-yl)-4-phenyl-thiazol-2-yl]-benzamide]	-8	> 275	29
COC(=O)Nc1nc(-c2ccccc2)c(-c2nc3ccccc3c(=O)n2-c2ccccc2Cl)s1 [Example 232, [5-(4-Oxo-3-(2-chloro-phenyl)-3,4-dihydro-quinazolin-2-yl)-4-phenyl-thiazol-2-yl]-carbamic acid methyl ester]	55	> 275	67
Cc1ccc(C(=O)Nc2nc(-c3ccccc3)c(-c3nc4ccccc4c(=O)n3-c3ccc(Cl)cc3)s2)cc1 [Example 254, 4-Methyl-N-[5-(4-oxo-3-(4-Chloro-phenyl)-3,4-dihydroquinazolin-2-yl)-4-phenyl-thiazol-2-yl]-benzamide]	0	> 275	2
Cc1ccc(-n2c(-c3sc(Nc4ccccc4)nc3-c3ccccc3)nc3ccccc3c2=O)cc1 [Example 196, 3-p-Tolyl-2-(4-phenyl-2-phenylamino-thiazol-5-yl)-3H-quinazolin-4-one]	38	225 to 228	10
CC(=O)c1ccc(-n2c(-c3sc(Nc4ccccc4)nc3C)nc3ccccc3c2=O)cc1 [Example 262, 2-(4-Methyl-2-phenylamino-thiazol-5-yl)-3-(4-acetyl-phenyl)-3H-quinazolin-4-one]	15	271 to 273	7
Cc1cccc(-n2c(-c3cc(-c4ccccc4)c(N4CCOCC4)s3)nc3ccccc3c2=O)c1 [Example 284, 2-(5-Morpholin-4-yl-4-phenyl-thiophene-2-yl)-3-m-tolyl-3H-quinazolin-4-one]		194 to 196	
COc1ccccc1-n1c(-c2cc(-c3ccc(Cl)cc3)c(N3CCOCC3)s2)nc2ccccc2c1=O [Example 295, 2-[4-(4-Chlorophenyl)-5-morpholin-4-yl-thiophene-2-yl]-3-(2-methoxy-phenyl)-3H-quinazolin-4-one]		216 to 217	
Cc1ccccc1-n1c(-c2sc(Nc3ccccc3)nc2-c2ccccc2)nc2ccccc2c1=O [Example 174, 3-o-Tolyl-2-(4-phenyl-2-phenylamino-thiazol-5-yl)-3H-quinazolin-4-one]		141 to 143	
CNc1nc(C)c(-c2nc3ccccc3c(=O)n2-c2cccc(C)c2)s1 [Example 181, 2-(4-methyl-2-methylamino-thiazol-5-yl)-3-m-tolyl-3H-quinazolin-4-one]	10	> 275	20
Cc1ccc(C(=O)Nc2nc(-c3ccccc3)c(-c3nc4ccccc4c(=O)n3-c3ccccc3Cl)s2)cc1 [Example 236, 4-Methyl-N-[5-(4-oxo-3-(2-chloro-phenyl)-3,4-dihydroquinazolin-2-yl)-4-phenyl-thiazol-2-yl]-benzamide]		> 275	
Cc1ccc(-n2c(-c3sc(Nc4ccccc4)nc3C)nc3ccccc3c2=O)cc1 [Example 191, 2-(4-Methyl-2-phenylamino-thiazol-5-yl)-3-p-tolyl-3H-quinazolin-4-one]		256 to 257	
